{
  "source": "patent US8865191B2",
  "about": "“Lipid composition and skin care formulation containing the same” (Takasago International Corporation, priority 2003, dated 2014)",
  "assay": "Liquid crystal dispersion system formation with changed component (i)",
  "format": "physicochemical",
  "conditions": "component (i): phytosterol 2, cetanol 5, Table 6 component 3, δ-tocopherol 0.1 parts by weight",
  "source_text": "The racemic ceramide was obtained by converting a racemic sphinganine obtained by the method by D. Shapiro., et al., (J. Am. Chem. Soc., 80, 2170(1958)) into its stearoyl form.",
  "data": [
    {"smiles": "CCCCCCCCCCCCCCCCCC(=O)NC(CO)C(O)CCCCCCCCCCCCCCC", "note": "(racemic) [racemic ceramide]", "values": [
      {"measurement": "System morphology", "value": "difficult to form a stable liquid crystal dispersion system"}
    ]}
  ]
}
